Measured values reported in DBAASP.
Converted amounts (≈) assume the structure as drawn. “And” between values parts separate entries of the source, which are not always exact repeats. Equal values may be shown once. Each block holds one compound with its values, some of them ahead of it.

Tests used:
Experiment in all cases: ≥ marks a high value that may be exact or a test limit, other limits are often not marked, values filed in µg/mL are converted to µM
[1] = tested on: Candida albicans ATCC 64550
[2] = tested on: Escherichia coli ATCC 25922
[3] = tested on: Pseudomonas aeruginosa ATCC 27853
[4] = tested on: Staphylococcus aureus ATCC 25923
[5] = tested on: Bacillus subtilis ATCC 6633
[6] = tested on: Corynebacterium xerosis C875
[7] = tested on: Enterococcus faecalis ATCC 29212
Escherichia coli DC2 = tested on: Escherichia coli DC2
Escherichia coli UB1005 = tested on: Escherichia coli UB1005
[8] = tested on: Staphylococcus epidermidis C621
[9] = tested on: Candida albicans ATCC 14053
[10] = tested on: Candida tropicalis ATCC 13803
Escherichia coli D31 = tested on: Escherichia coli D31
[11] = tested on: Staphylococcus aureus ATCC 29213
[12] = tested on: Bacillus subtilis IFO 3513
[13] = tested on: Escherichia coli IFO 12734
[14] = tested on: Staphylococcus aureus IFO 12732
Escherichia coli = tested on: Escherichia coli
Helicobacter pylori = tested on: Helicobacter pylori
Listeria monocytogenes = tested on: Listeria monocytogenes
[15] = tested on: Salmonella enterica subsp. enterica serovar Paratyphi A
[16] = tested on: Staphylococcus aureus A170
[17] = tested on: Staphylococcus epidermidis
Bacillus subtilis 1A751 = tested on: Bacillus subtilis 1A751
[18] = tested on: Salmonella enterica subsp. enterica serovar Choleraesuis CMCC 50020
[19] = tested on: Escherichia coli ATCC 25404
Escherichia coli O157 = tested on: Escherichia coli O157
[20] = tested on: Micrococcus luteus ATCC 10420
Salmonella typhimurium = tested on: Salmonella typhimurium
[21] = tested on: Staphylococcus aureus ATCC 43300
[22] = tested on: Staphylococcus epidermidis ATCC 9709
Bacillus megaterium = tested on: Bacillus megaterium
Escherichia coli O157:H7 = tested on: Escherichia coli O157:H7
[23] = tested on: Lysinibacillus sphaericus TISTR 678
[24] = tested on: Salmonella enterica subsp. enterica serovar Typhi ATCC 5784
[25] = tested on: Salmonella enterica subsp. enterica serovar Typhi DMST 22842
[26] = tested on: Salmonella enterica subsp. enterica serovar Typhi
[27] = tested on: Staphylococcus epidermidis ATCC 12228
Vibrio cholerae non-O139 = tested on: Vibrio cholerae non-O139
Vibrio cholerae non-O1 = tested on: Vibrio cholerae non-O1

Compound: CC[C@H](C)[C@H](N)C(=O)N[C@@H](CC(C)C)C(=O)N1CCC[C@H]1C(=O)N[C@@H](Cc1c[nH]c2ccccc12)C(=O)N[C@@H](CCCCN)C(=O)N[C@@H](Cc1c[nH]c2ccccc12)C(=O)N1CCC[C@H]1C(=O)N[C@@H](Cc1c[nH]c2ccccc12)C(=O)N[C@@H](CC(C)C)C(=O)N1CCC[C@H]1C(=O)N[C@@H](CC(C)C)C(=O)N[C@@H](CCCN=C(N)N)C(=O)N[C@@H](CCCN=C(N)N)C(N)=O [ILPWKWPWLPLRR]
MIC [12]: 28.4 µM (≈ 50 µg/mL) | MIC [13]: ≥ 56.8 µM | MIC [14]: 14.2 µM (≈ 25 µg/mL)

Compound: C[C@@H](O)[C@H](NC(=O)[C@H](CS)NC(=O)[C@H](Cc1ccccc1)NC(=O)[C@H](CS)NC(=O)[C@H](CCCN=C(N)N)NC(=O)[C@H](CCCN=C(N)N)NC(=O)[C@H](CCCN=C(N)N)NC(=O)[C@H](Cc1ccccc1)NC(=O)CNC(=O)[C@H](CCCN=C(N)N)NC(=O)[C@H](CS)NC(=O)[C@H](CC(N)=O)NC(=O)CNC(=O)CNC(=O)[C@H](CO)NC(=O)[C@@H](N)Cc1ccccc1)C(=O)N[C@@H](CCCCN)C(N)=O [FSGGNCRGFRRRCFCTK]
MIC (Escherichia coli): 7.52 µM (≈ 15 µg/mL) | MIC (Helicobacter pylori): 7.52 µM and 5.01 µM and 6.01 µM | MIC (Listeria monocytogenes): 20 µM (≈ 40 µg/mL) | MIC [15]: 7.52 µM (≈ 15 µg/mL) | MIC [16]: 20 µM (≈ 40 µg/mL) | MIC [17]: 20 µM (≈ 40 µg/mL)

Compound: CC(C)C[C@H](NC(=O)[C@H](CC(C)C)NC(=O)[C@H](Cc1cnc[nH]1)NC(=O)[C@H](CO)NC(=O)[C@H](CC(C)C)NC(=O)[C@H](C)NC(=O)[C@H](Cc1cnc[nH]1)NC(=O)[C@H](Cc1ccccc1)NC(=O)[C@H](CC(C)C)NC(=O)[C@H](C)NC(=O)CNC(=O)[C@H](CC(C)C)NC(=O)[C@@H](N)Cc1ccccc1)C(=O)O [FLGALFHALSHLL]
MIC [19]: ≥ 64 µM | MIC (Escherichia coli O157): ≥ 64 µM | MIC (Listeria monocytogenes): ≥ 64 µM | MIC [20]: 8 µM (≈ 11.5 µg/mL) | MIC (Salmonella typhimurium): ≥ 64 µM | MIC [11]: 8 µM (≈ 11.5 µg/mL) | MIC [21]: 16 µM (≈ 23 µg/mL) | MIC [22]: 16 µM (≈ 23 µg/mL)

Continued, in another order:

MIC [1]: ≥ 100 µM | MIC [2]: 15 µM (≈ 25.9 µg/mL) | MIC [3]: 20 µM (≈ 34.5 µg/mL) | MIC [4]: 2.5 µM (≈ 4.32 µg/mL)
Compound: CC(C)C[C@H](NC(=O)[C@H](Cc1c[nH]c2ccccc12)NC(=O)[C@@H](N)CCCCN)C(=O)N[C@@H](CCCN=C(N)N)C(=O)N[C@@H](CCCN=C(N)N)C(=O)N[C@H](C(=O)N[C@@H](Cc1c[nH]c2ccccc12)C(=O)N[C@@H](CCCN=C(N)N)C(=O)N[C@@H](Cc1c[nH]c2ccccc12)C(=O)N[C@@H](Cc1c[nH]c2ccccc12)C(=O)N[C@@H](CCCN=C(N)N)C(N)=O)C(C)C [KWLRRVWRWWR]

MIC [5]: 16 µM (≈ 29.4 µg/mL) | MIC [6]: 4 µM (≈ 7.34 µg/mL) | MIC [7]: > 32 µM | MIC [2]: > 32 µM | MIC (Escherichia coli DC2): 16 µM (≈ 29.4 µg/mL) | MIC (Escherichia coli UB1005): ≥ 32 µM | MIC [3]: > 32 µM | MIC [4]: > 32 µM | MIC [8]: ≥ 32 µM
Compound: C[C@H](NC(=O)[C@H](C)NC(=O)[C@H](CCCCN)NC(=O)[C@H](CCCCN)NC(=O)[C@@H](N)CCCCN)C(=O)N[C@@H](C)C(=O)N[C@@H](Cc1ccccc1)C(=O)N[C@@H](C)C(=O)N[C@@H](C)C(=O)N[C@@H](Cc1c[nH]c2ccccc12)C(=O)N[C@@H](C)C(=O)N[C@@H](C)C(=O)N[C@@H](Cc1ccccc1)C(=O)N[C@@H](C)C(=O)N[C@@H](CCCCN)C(=O)N[C@@H](CCCCN)C(=O)N[C@@H](CCCCN)C(N)=O [KKKAAAFAAWAAFAKKK]

MIC [9]: 9.66 µM (≈ 44.8 µg/mL) | MIC [10]: 4.87 µM (≈ 22.6 µg/mL) | MIC (Escherichia coli D31): 4.87 µM (≈ 22.6 µg/mL) | MIC [3]: 19.1 µM (≈ 88.6 µg/mL) | MIC [11]: 19.1 µM (≈ 88.6 µg/mL)
Compound: CC[C@H](C)[C@@H]1NC(=O)CNC(=O)[C@H](CCCCN)NC(=O)[C@H](CC(N)=O)NC(=O)[C@H](CCCN=C(N)N)NC(=O)[C@H](CCCN=C(N)N)NC(=O)[C@@H](NC(=O)[C@H](CO)NC(=O)[C@H](CCC(N)=O)NC(=O)[C@H](CO)NC(=O)[C@H](CC(N)=O)NC(=O)[C@H](CCCN=C(N)N)NC(=O)[C@@H](NC(=O)CNC(=O)[C@@H](N)CCC(N)=O)C(C)C)CSSC[C@@H]2NC(=O)[C@H](CCCCN)NC(=O)[C@H](C(C)C)NC(=O)[C@H](CCC(N)=O)NC(=O)[C@H](C)NC(=O)CNC(=O)[C@H](CC(C)C)NC(=O)[C@@H]3CSSC[C@H](NC1=O)C(=O)N[C@@H](C(C)C)C(=O)N1CCC[C@H]1C(=O)N[C@@H]([C@@H](C)CC)C(=O)N[C@@H](CCCN=C(N)N)C(=O)N[C@@H](CSSC[C@@H](C(=O)N[C@@H](CCCN=C(N)N)C(=O)N[C@@H](CCCN=C(N)N)C(=O)N[C@@H](CCCCN)C(=O)O)NC2=O)C(=O)N1CCC[C@H]1C(=O)NCC(=O)N[C@@H](CO)C(=O)N[C@@H](CCSC)C(=O)N[C@@H](CCCN=C(N)N)C(=O)N[C@@H](CCC(N)=O)C(=O)N[C@@H]([C@@H](C)CC)C(=O)NCC(=O)N[C@@H]([C@@H](C)O)C(=O)N3 [QGVRNSQSCRRNKGICVPIRCPGSMRQIGTCLGAQVKCCRRK]

MIC (Bacillus subtilis 1A751): ≥ 53.4 µM | MIC [2]: 3.34 µM (≈ 7.99 µg/mL) | MIC [4]: 3.34 µM (≈ 7.99 µg/mL)
Compound: CC[C@H](C)[C@H](NC(=O)[C@H](CCCCN)NC(=O)[C@@H](NC(=O)[C@H](CC(C)C)NC(=O)[C@@H](NC(=O)[C@H](CCCCN)NC(=O)[C@H](CC(C)C)NC(=O)[C@H](Cc1ccccc1)NC(=O)[C@H](Cc1ccccc1)NC(=O)[C@H](CCCCN)NC(=O)[C@@H](N)CCCCN)C(C)C)[C@@H](C)O)C(=O)N[C@@H](CCCN=C(N)N)C(=O)N[C@H]1CSSC[C@@H](C(=O)N[C@@H](CCCN=C(N)N)C(=O)N[C@H](C(=O)O)[C@@H](C)O)NC(=O)CNC(=O)CNC(=O)[C@H](C)NC(=O)[C@H](C(C)C)NC(=O)[C@H](CCCCN)NC1=O [KKFFLKVLTKIRCKVAGGCRT]
MIC [18]: 6.67 µM (≈ 16 µg/mL)

MIC (Bacillus megaterium): ≥ 64 µM | MIC [2]: > 248 µM | MIC (Escherichia coli O157:H7): ≥ 64 µM | MIC [23]: ≥ 64 µM | MIC [3]: > 248 µM | MIC [24]: ≥ 64 µM | MIC [25]: ≥ 248 µM | MIC [26]: 31.1 µM and ≥ 64 µM | MIC [4]: > 248 µM | MIC [27]: > 248 µM | MIC [17]: 31.1 µM (≈ 25 µg/mL)
Compound: CC(C)[C@H](NC(=O)CNC(=O)[C@@H](N)CC(N)=O)C(=O)N[C@@H](CCC(N)=O)C(=O)N1CCC[C@H]1C(=O)N[C@@H](CCCCN)C(=O)N[C@@H](Cc1ccc(O)cc1)C(=O)O [NGVQPKY]
MIC (Vibrio cholerae non-O139): ≥ 248 µM | MIC (Vibrio cholerae non-O1): ≥ 248 µM
